These results are taken from US11242345B2, “Sulfonimidoylpurinone compounds and methods of treatment using the same” (Hoffmann-La Roche Inc., priority 2015, dated 2022).

Like-named read-outs stand apart in the source and are kept apart here.

The target in data set [1] is human TLR7 (Homo sapiens (Human), UniProt Q9NYK1). Description: HEK-Blue-hTLR7 cells assay (SEAP reporter). The data set is classed as cell-based. The conditions noted are these: 20 hrs. Here is the method:
A stable HEK-Blue-hTLR7 cell line was purchased from InvivoGen (Cat. #: hkb-htlr7, San Diego, Calif., USA). These cells were designed for studying the stimulation of human TLR7 by monitoring the activation of NF-κB. […] Therefore the reporter expression was regulated by the NF-κB promoter upon stimulation of human TLR7 for 20 hrs. The cell culture supernatant SEAP reporter activity was determined using QUANTI-Blue™ kit (Cat. #: rep-qbl, Invivogen, San Diego, Ca, USA) at a wavelength of 640 nm, a detection medium that turns purple or blue in the presence of alkaline phosphatase.
HEK-Blue-hTLR7 cells were incubated at a density of 250,000-450,000 cells/mL in a volume of 180 μL in a 96-well plate in Dulbecco's Modified Eagle's medium (DMEM) containing 4.5 g/L glucose, 50 U/mL penicillin, […], […], 2 mM L-glutamine, 10% (V/V) heat-inactivated fetal bovine serum for 24 hrs. Then the HEK-Blue-hTLR-7 cells were incubated with addition of 20 μL test compound in a serial dilution in the presence of final DMSO at 1% and perform incubation under 37° C. in a CO2 incubator for 20 hrs. Then 20 μL of the supernatant from each well was incubated with […] Quanti-blue substrate solution at 37° C. for 2 hrs and the absorbance was read at 620-655 nm using a spectrophotometer. The signalling pathway that TLR7 activation leads to downstream NF-κB activation has been widely accepted, and therefore similar reporter assay was also widely used for evaluating TLR7 agonist (Tsuneyasu Kaisho and Takashi Tanaka, Trends in Immunology, Volume 29, Issue 7, July 2008, […]; Hiroaki Hemmi et al, Nature Immunology 3, 196-200 (2002)).

The target of data set [2] is hERG channel (Homo sapiens (Human), UniProt Q12809). Description: hERG channel inhibition assay (patch-clamp, CHOhERG cells). The data set is classed as cell-based. The conditions noted are these: for IC20: human, CHO cells stably expressing hERG. Here is the method:
The hERG K^+ channels were cloned in humans and stably expressed in a CHO (Chinese hamster ovary) cell line. CHOhERG cells were used for patch-clamp (voltage-clamp, whole-cell) experiments. Cells were stimulated by a voltage pattern to activate hERG channels and conduct IKhERG currents (rapid delayed outward rectifier potassium current of the hERG channel). […] Thereafter, the test compound was added to the preparation at increasing concentrations. For each concentration, an attempt was made to reach a steady-state effect, usually, this was achieved within 3-10 min at which time the next highest concentration was applied. The amplitude and kinetics of IKhERG are recorded in each concentration of the drug which were compared to the control values (taken as 100%). (references: Redfern W S, Carlsson L, Davis A S, Lynch W G, MacKenzie I, Palethorpe S, Siegl P K, Strang I, Sullivan A T, Wallis R, Camm A J, Hammond T G. 2003; Relationships between preclinical cardiac electrophysiology, clinical QT interval prolongation and torsade de pointes for a broad range of drugs: evidence for a provisional safety margin in drug development. Cardiovasc. Res. 58:32-45, Sanguinetti M C, Tristani-Firouzi M. 2006; hERG potassium channels and cardiac arrhythmia. Nature 440:463-469, Webster R, Leishman D, Walker D. 2002; Towards a drug concentration effect relationship for QT prolongation and torsades de pointes. Curr. Opin. Drug Discov. Devel. 5:116-26).

For data set [3], the system named is CYP3A4. Description: Cytochrome P450 induction screening assay, mRNA induction in human cryopreserved hepatocytes. The data set is classed as in vitro ADME. The conditions noted are these: 24 hours. The text has this: Induction of cytochrome P450 enzymes is associated with an increased prevalence of clinical drug-drug interactions. The clinical consequences of induction may be therapeutic failure caused by a decreased systemic exposure of the drug itself or a co-administered therapy, or toxicity as a result of increased bioactivation. Cytochrome P450 (CYP450) induction assay has been used to understand the potential drug-drug interaction liabilities in drug discovery stage. Human cryopreserved hepatocytes (Life Technologies, Carlsbad, USA) were thawed and cultured in collagen I coated 96-well plates with a density of 52,000 cells/well. After attachment, hepatocyte maintenance medium (HMM; Lonza, Switzerland) was changed after cells were pre-cultured overnight. […] Medium change was then performed and cells were exposed for 24 hours to test compounds, positive inducer compounds, or vehicle (0.1% DMSO), respectively. At the end of the compound exposure period, medium was removed and cells lysed using 100 μL/well MagNA Pure LC RNA isolation tissue lysis buffer (Roche Diagnostics AG, Rotkreuz, Switzerland). […] mRNA isolation was performed using the MagNA Pure 96 system (Roche Diagnostics AG, Rotkreuz, Switzerland) and the respective cellular RNA large volume kit (Roche Diagnostics AG, Rotkreuz, Switzerland) from thawed samples diluted 1:1 with PBS. […] The resulting cDNA was diluted with 40 μL of H2O before using for qRT-PCR. qRT-PCR was performed by using the forward and the reverse primer, the corresponding Universal Probe Library (all from Microsynth, Balgach, Switzerland) and the Taqman Fast advanced master mix (Applied Biosystems), on an ABI 7900 machine (Applied Biosystems). qRT-PCR Ct-values for the respective P450s were put into relation to the Ct-value of RN18S1 (microsynth, Balgach, Switzerland) of the same sample. Doing so, a respective Δct-value was calculated. Using the average of all Δct-values for the vehicle control samples, a ΔΔct-value was calculated for each sample (ΔΔct-value(sample)=Δct-value(sample)−average of Δct-value of all vehicle controls). […] The individual fold induction values were then averaged per treatment condition (usually n=3 biological replicates). […] Relative induction (%)=100×(T−V)/(P−V) • T: fold induction of test compound condition • P: fold induction of positive inducer compound • V: fold induction of vehicle controls Results of CYP3A4 induction are given in Table 5.

In data set [4] the target is human TLR8 (Homo sapiens (Human), UniProt Q9NR97). Description: HEK-Blue-hTLR8 cells assay (SEAP reporter) and selectivity index. The data set is classed as cell-based. The following applies: 20 hrs, read-out: HEK Blue hTLR-8 EC50. Here is the method: These cells were designed for studying the stimulation of human TLR8 by monitoring the activation of NF-κB. […] Therefore the reporter expression was regulated by the NF-κB promoter upon stimulation of human TLR8 for 20 hrs.
Then the HEK-Blue-hTLR8 cells were incubated with addition of 20 μL test compound in a serial dilution in the presence of final DMSO at 1% and perform incubation under 37° C. in a CO2 incubator for 20 hrs. […] The signalling pathway that TLR8 activation leads to downstream NF-κB activation has been widely accepted, and therefore similar reporter assay was also widely used for evaluating TLR8 agonist (Tsuneyasu Kaisho and Takashi Tanaka, Trends in Immunology, Volume 29, Issue 7, July 2008, […]; Hiroaki Hemmi et al, Nature Immunology 3, 196-200 (2002)).

Data set [5] is described as follows: Single dose PK after 1 mg/kg intravenous dosing to rat. The data set is classed as in vivo, Male Wister-Han Rats. The conditions noted are these: IV 1 mpk. On the procedure:
The single dose PK in Male Wister-Han Rats was performed to assess pharmacokinetic properties of tested compounds. Two groups of animals were dosed via bolus intravenous (IV) of the respective compound. Blood samples (approximately 20 μL) were collected via Jugular vein or an alternate site at 5 min, 15 min, 30 min, 1 hr, 2 hr, 4 hr, 7 hr and 24 hr post-dose for IV group. Blood samples were placed into tubes containing EDTA-K2 anticoagulant and centrifuged at 5000 rpm for 6 min at 4° C. to separate plasma from the samples. Following centrifugation, the resulting plasma was transferred to clean tubes for bioanalysis on LC/MS/MS. The pharmacokinetic parameters were calculated using non-compartmental module of WinNonlin® Professional 6.2. […] Therefore, compounds of present invention potentially could lead to less dose frequency and lower dose in clinical application.

Data set [6] relates to patients with chronic hepatitis B. The conditions noted are these: phase Ib; cited from earlier work.
The conditions of data set [7]: rat, IV 1 mpk; data from WO2016023511; cited from earlier work.
[8] abbreviates: read-out: HEK-Blue-hTLR7 (EC50 (μM)).
Where [9] appears, read: male, Wister-Han, plasma, iv, 1 mg/kg.

Chain of hERG channel (Q12809 whole entry): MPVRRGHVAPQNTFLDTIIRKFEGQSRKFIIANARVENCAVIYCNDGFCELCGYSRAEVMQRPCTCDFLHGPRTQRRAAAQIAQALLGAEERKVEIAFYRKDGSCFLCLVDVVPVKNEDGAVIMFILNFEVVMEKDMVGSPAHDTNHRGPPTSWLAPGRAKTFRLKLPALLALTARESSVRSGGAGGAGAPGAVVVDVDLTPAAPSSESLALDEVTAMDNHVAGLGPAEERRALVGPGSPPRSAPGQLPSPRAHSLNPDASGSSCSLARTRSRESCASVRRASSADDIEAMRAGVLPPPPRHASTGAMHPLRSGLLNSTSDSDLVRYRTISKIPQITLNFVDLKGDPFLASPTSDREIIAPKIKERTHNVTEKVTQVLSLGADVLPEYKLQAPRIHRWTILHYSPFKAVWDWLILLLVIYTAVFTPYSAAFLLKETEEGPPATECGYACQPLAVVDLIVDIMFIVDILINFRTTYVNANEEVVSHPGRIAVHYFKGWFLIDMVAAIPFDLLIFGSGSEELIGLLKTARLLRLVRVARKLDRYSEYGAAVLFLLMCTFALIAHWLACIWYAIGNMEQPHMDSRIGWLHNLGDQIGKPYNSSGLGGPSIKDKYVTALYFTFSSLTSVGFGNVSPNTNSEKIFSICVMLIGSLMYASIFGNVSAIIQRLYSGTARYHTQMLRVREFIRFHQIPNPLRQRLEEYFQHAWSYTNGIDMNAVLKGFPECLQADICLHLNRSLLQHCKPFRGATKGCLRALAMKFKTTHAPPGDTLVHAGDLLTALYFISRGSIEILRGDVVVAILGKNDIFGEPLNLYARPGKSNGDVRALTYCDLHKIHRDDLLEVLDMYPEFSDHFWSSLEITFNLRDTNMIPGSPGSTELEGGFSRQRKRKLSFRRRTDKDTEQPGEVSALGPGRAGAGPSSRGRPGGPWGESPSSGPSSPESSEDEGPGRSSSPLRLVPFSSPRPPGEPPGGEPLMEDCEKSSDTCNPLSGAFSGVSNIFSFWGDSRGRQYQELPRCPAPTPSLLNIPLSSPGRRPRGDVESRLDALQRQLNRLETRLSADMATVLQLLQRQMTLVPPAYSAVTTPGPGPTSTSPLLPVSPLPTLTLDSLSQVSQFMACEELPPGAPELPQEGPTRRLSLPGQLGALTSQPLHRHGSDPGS
Chain of human TLR7 (Q9NYK1 27-1049): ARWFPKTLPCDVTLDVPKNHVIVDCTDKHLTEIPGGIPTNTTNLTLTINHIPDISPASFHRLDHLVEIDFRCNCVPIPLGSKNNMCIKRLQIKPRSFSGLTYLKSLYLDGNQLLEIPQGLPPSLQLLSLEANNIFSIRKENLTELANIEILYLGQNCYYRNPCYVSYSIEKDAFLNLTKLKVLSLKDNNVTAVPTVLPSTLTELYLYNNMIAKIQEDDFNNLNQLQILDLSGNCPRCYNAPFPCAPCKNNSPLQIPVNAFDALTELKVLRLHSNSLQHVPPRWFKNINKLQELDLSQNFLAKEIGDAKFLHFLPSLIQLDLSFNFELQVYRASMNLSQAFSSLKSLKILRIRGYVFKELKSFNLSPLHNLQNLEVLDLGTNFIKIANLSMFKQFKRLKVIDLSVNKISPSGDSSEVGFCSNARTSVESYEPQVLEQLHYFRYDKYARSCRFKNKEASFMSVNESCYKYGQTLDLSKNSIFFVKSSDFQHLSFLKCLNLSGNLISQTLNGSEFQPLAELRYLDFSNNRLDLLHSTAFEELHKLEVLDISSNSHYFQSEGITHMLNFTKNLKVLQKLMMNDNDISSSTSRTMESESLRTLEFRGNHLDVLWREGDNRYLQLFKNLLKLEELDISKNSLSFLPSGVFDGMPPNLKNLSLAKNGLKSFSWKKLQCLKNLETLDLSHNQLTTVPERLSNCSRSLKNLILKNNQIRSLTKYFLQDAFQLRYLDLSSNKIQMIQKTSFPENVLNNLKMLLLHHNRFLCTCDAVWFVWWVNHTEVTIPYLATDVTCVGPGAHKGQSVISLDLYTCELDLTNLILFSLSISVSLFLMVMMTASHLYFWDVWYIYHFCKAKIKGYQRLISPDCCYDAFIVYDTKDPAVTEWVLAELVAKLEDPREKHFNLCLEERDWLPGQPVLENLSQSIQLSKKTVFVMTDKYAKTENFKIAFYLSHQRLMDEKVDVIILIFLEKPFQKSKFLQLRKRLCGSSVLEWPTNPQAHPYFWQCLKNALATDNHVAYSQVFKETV
Chain of human TLR8 (Q9NR97 27-1041): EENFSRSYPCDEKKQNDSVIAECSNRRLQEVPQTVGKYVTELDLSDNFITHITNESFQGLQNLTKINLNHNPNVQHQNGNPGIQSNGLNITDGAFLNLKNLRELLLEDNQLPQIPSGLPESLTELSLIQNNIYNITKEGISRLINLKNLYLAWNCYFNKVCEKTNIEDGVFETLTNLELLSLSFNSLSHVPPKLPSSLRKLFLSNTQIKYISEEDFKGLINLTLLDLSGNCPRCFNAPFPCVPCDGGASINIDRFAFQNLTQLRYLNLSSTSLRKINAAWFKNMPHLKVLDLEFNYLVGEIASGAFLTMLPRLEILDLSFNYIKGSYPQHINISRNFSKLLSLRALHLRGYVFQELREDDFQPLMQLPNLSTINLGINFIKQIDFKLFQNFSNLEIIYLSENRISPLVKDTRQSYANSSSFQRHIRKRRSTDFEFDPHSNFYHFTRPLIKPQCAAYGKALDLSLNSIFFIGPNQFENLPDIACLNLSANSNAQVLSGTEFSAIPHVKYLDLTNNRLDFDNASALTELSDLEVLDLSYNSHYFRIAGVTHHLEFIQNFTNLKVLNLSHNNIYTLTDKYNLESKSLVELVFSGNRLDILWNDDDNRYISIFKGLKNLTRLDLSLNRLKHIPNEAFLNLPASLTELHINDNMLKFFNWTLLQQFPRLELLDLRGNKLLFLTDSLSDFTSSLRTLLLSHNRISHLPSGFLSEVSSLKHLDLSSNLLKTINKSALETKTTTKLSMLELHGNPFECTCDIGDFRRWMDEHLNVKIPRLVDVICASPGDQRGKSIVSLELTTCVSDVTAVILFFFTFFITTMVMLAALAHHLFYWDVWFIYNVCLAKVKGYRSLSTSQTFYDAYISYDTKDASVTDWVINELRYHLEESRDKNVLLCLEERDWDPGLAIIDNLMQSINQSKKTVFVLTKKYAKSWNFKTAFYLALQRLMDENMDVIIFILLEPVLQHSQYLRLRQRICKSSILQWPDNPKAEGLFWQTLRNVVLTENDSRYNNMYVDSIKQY

As usually defined, the EC50 is the midpoint of the concentration-response curve. The term IC50 denotes the concentration needed to halve the response being measured. Broadly, the IC20 is the concentration at which the effect reaches the 20% level. With `CS(=N)(=O)c1nc(N)c2[nH]c(=O)n(Cc3ccccc3)c2n1` (single isomer, unassigned) [Example 1-B, 6-Amino-9-benzyl-2-(methylsulfonimidoyl)-7H-purin-8-one], the EC50 in data set [1] (setting [8]) was 0.18 µM. Also, in data set [2], the IC50 was > 20 µM and the IC20 was > 10 µM.

For the compound `CCCS(=N)(=O)c1nc(N)c2[nH]c(=O)n(Cc3ccccc3)c2n1` (single isomer, unassigned) [Example 4-A, 6-Amino-9-benzyl-2-(propylsulfonimidoyl)-7H-purin-8-one], in data set [3], the “Relative induction of Positive control (10 μM Rifampicin) (%)” value (“Relative induction … (%)” for short) was −0.63%.

In data set [1] (HEK-Blue-hTLR7 (EC50 (μM))), `CCCS(=N)(=O)c1nc(N)c2[nH]c(=O)n(Cc3ccccc3)c2n1` (single isomer, unassigned) [Example 4-B, 6-Amino-9-benzyl-2-(propylsulfonimidoyl)-7H-purin-8-one] displayed an EC50 of 0.086 µM. In data set [3], the “Relative induction … (%)” value is listed as −0.90%.

In data set [1] (HEK-Blue-hTLR7 (EC50 (μM))), `CCCS(=N)(=O)c1nc(N)c2[nH]c(=O)n(Cc3ccc(C)cc3)c2n1` (single isomer, unassigned) [Example 29-A, 6-Amino-2-(propylsulfonimidoyl)-9-(p-tolylmethyl)-7H-purin-8-one] came in with an EC50 of 0.019 µM. Further, in data set [2], the concentration for half-maximal inhibition (IC50) was > 20 µM and the IC20 was > 10 µM.

In data set [1] (HEK-Blue-hTLR7 (EC50 (μM))), `CCCS(=N)(=O)c1nc(N)c2[nH]c(=O)n(Cc3ccc(C)cc3)c2n1` (single isomer, unassigned) [Example 29-B, 6-Amino-2-(propylsulfonimidoyl)-9-(p-tolylmethyl)-7H-purin-8-one] had an EC50 of 0.022 µM. Also, in data set [2], the IC50 is > 20 µM.

The term AUC(0-inf) denotes total exposure, with the tail of the curve extrapolated. Higher therefore signals high exposure. For orientation: clearance means the rate of elimination divided by the concentration. As to `CCS(=N)(=O)c1nc(N)c2[nH]c(=O)n(Cc3ccc(Cl)cc3)c2n1` (single isomer, unassigned) [Example 70-A, 6-Amino-9-[(4-chlorophenyl)methyl]-2-(ethylsulfonimidoyl)-7H-purin-8-one], the EC50 in data set [1] (setting [8]) amounted to 0.054 µM. In data set [4], the EC50 was > 1 mM. Besides, the “Relative induction … (%)” value in data set [3] came to 0.42%. Further, in data set [5] (setting [9]), the AUC(0-inf) came to 1.63 µM·h, the C0 was 3050 nM and the clearance stood at 56 mL/min/kg.

Consider `CCS(=N)(=O)c1nc(N)c2[nH]c(=O)n(Cc3ccc(Cl)cc3)c2n1` (single isomer, unassigned) [Example 70-B, 6-Amino-9-[(4-chlorophenyl)methyl]-2-(ethylsulfonimidoyl)-7H-purin-8-one], for which the EC50 in data set [1] (setting [8]) is 0.077 µM. Further, in data set [3], the “Relative induction … (%)” value is reported as −0.42%. The C0 in data set [5] turned out to be 2780 nM.

Turning to `CCS(=N)(=O)c1nc(N)c2[nH]c(=O)n(Cc3ccc(C)cc3)c2n1` (single isomer, unassigned) [Example 71-A, 6-Amino-2-(ethylsulfonimidoyl)-9-(p-tolylmethyl)-7H-purin-8-one], in data set [1] (setting [8]), the EC50 is 0.134 µM. Also, in data set [2], the IC50 is > 20 µM and the IC20 is > 10 µM. Moreover, in data set [3], the “Relative induction … (%)” value is listed as −0.10%. Moreover, in data set [5] (setting [9]), the AUC(0-inf) was found to be 1.18 µM·h, the C0 stood at 1850 nM and the clearance stood at 84.6 mL/min/kg.

On to `CCS(=N)(=O)c1nc(N)c2[nH]c(=O)n(Cc3ccc(C)cc3)c2n1` (single isomer, unassigned) [Example 71-B, 6-Amino-2-(ethylsulfonimidoyl)-9-(p-tolylmethyl)-7H-purin-8-one], for which, in data set [1] (setting [8]), the EC50 worked out at 0.087 µM.

`CCCS(=N)(=O)c1nc(N)c2[nH]c(=O)n(Cc3ccc(F)cc3)c2n1` (stereo not drawn) [Example 24, 6-Amino-9-[(4-fluorophenyl)methyl]-2-(propylsulfonimidoyl)-7H-purin-8-one]: the “Relative induction … (%)” value in data set [3] was −0.72%.

In data set [5], `CS(=O)(=O)c1nc(N)c2[nH]c(=O)n(Cc3ccccc3)c2n1` [Example S-1, reference compound] came in with a C0 of 534 nM.

As to `CCCCOc1nc(N)c2c(n1)N(Cc1cccc(CN3CCCC3)c1)CC(=O)N2` [GS-9620], in data set [6], the “ISG15 mRNA induction” value is recorded as “dose-dependent ISG15 mRNA induction”; the Safety and tolerability entry is recorded as “safe, well tolerated”. For the same compound, in data set [7], the C0 is 220 nM.
